One data set concerns DENV-3 replicon. The data set can be described thus: Luciferase reporter replicon-based screening, DENV-3. It is filed as cell-based, DENV-3 (strain D3MY05-34640). Here is the method: (§1) Luciferase Reporter Replicon-Based Screening. Huh7 cells containing a luciferase reporter replicon of DENV-1 (strain WestPac), DENV-2 (New Guinea C strain, NGC), DENV-3 (strain D3MY05-34640) and DENV-4 (strain D4MY01-22713) were used in this study. The replicon cells containing the Renilla luciferase and neomycin-resistance genes were generated using a similar strategy as described previously.^55 Briefly, Huh7 DENV-1 to -4 replicon cells were seeded at a density of 10k per well in a 96-well microplate. After incubation at 37° C. with 5% CO2 overnight, the cells were treated with 2-fold serial dilutions of compounds. Experiments were performed in duplicates. After 48 h of incubation, luciferase activities were measured using the EnduRen live-cell substrate (Promega) by following the manufacturer’s instructions. The dose-dependent curve was plotted and EC50 values were calculated using four parameter logistic regression in GraphPad software Prism 8.0.

The nature of data set [1]: Cytotoxicity assay (CellTiter-Glo). Format: cell-based. As to conditions: human, Huh7 cells stably expressing DENV-2 replicon. As for the experimental part:
Cytotoxicity Assay. Huh7 cells or Huh7 replicon cells were seeded in a 96-well plate. After incubation at 37° C. with 5% CO2 overnight, the cells were treated with 2-fold serial dilutions of compounds. Experiments were performed in duplicates. After 48 h of incubation, cell viability was measured by adding the CellTiter-Glo reagent (Promega) to each well. The cell viability in 0.45% DMSO-treatment groups was treated at 100%. The cell viability in compound-treated wells was normalized to that of DMSO-treated wells. CC50 values were calculated using four parameter logistic regression in GraphPad software Prism 8.0.

The subject of a further data set is DENV-1 replicon. The data set can be described thus: Luciferase reporter replicon-based screening, DENV-1. As to conditions: Dengue virus, DENV1, Huh-7, 48 h, read-out: EC50 DENV-1. Format: cell-based, DENV-1 (strain WestPac). As for the experimental part: as §1
For a further data set, the system named is DENV-4 replicon. The data set can be described thus: Luciferase reporter replicon-based screening, DENV-4. The following applies: Dengue virus, DENV4, Huh-7, 48 h, read-out: EC50 DENV-4. Format: cell-based, DENV-4 (strain D4MY01-22713). As for the experimental part:
as §1

The subject of another data set is DENV-2 replicon. Nature of the data set: Luciferase reporter replicon-based screening, DENV-2. It is filed as cell-based, DENV-2 (New Guinea C strain, NGC). Here is the method: as §1
[2] abbreviates: Dengue virus, DENV3, Huh-7, 48 h, read-out: EC50 DENV-3, Huh7 cells stably expressing DENV-3 replicon, 48 h.
The mark [3] stands for this setting: Dengue virus, DENV2, Huh-7, 48 h, read-out: EC50 DENV-2, Huh7 cells stably expressing DENV-2 replicon, 48 h.
Where [4] appears, read: read-out: EC50 DENV-2, Huh7 cells stably expressing DENV-2 replicon, 48 h.

SMILES strings stand for the structures. Where two headings read alike, the source gives them in different places.

Take `C[C@@H](c1ccc(Cl)cc1)n1nnc2c1NC(=O)C[C@]21C(=O)Nc2ccc(Cl)cc21` [Compound 1a, (R)-5'-Chloro-3-((S)-1-(4-chlorophenyl)ethyl)-4,6-dihydrospiro[[1,2,3]triazolo[4,5-b]pyridine-7,3'-indoline]-2',5(3H)-dione]: the EC50 in the data set on DENV-3 replicon (setting [2]) is 10 nM; with DENV-1 replicon it was > 5000 nM; in the data set on DENV-4 replicon it was > 5000 nM; in the data set on DENV-2 replicon (setting [3]) it was 39 nM. Further, in data set [1], the 50% cytotoxic concentration (CC50) at 48 h is > 10000 nM.
Turning to `C[C@@H](c1ccc(Cl)cc1)n1nnc2c1NC(=O)C[C@]21C(=O)N(C)c2ccc(Cl)cc21` [Compound 7, (R)-5'-Chloro-3-((S)-1-(4-chlorophenyl)ethyl)-1'-methyl-4,6-dihydrospiro[[1,2,3]triazolo[4,5-b]pyridine-7,3'-indoline]-2',5(3H)-dione], the EC50 in the data set with DENV-3 replicon (setting [2]) was 4 nM; in the data set with DENV-1 replicon, > 5000 nM; in the data set with DENV-4 replicon, > 5000 nM; with DENV-2 replicon (setting [3]) it was 19 nM. In data set [1], the CC50 at 48 h is > 10000 nM.
`CCN1C(=O)[C@]2(CC(=O)Nc3c2nnn3[C@@H](C)c2ccc(Cl)cc2)c2cc(Cl)ccc21` [Compound 8, (R)-5'-Chloro-3-((S)-1-(4-chlorophenyl)ethyl)-1'-ethyl-4,6-dihydrospiro[[1,2,3]triazolo[4,5-b]pyridine-7,3'-indoline]-2',5(3H)-dione]: the EC50 in the data set on DENV-3 replicon (setting [2]) is 6 nM; in the data set with DENV-1 replicon, 2500 nM; in the data set on DENV-4 replicon, > 5000 nM; in the data set on DENV-2 replicon (setting [3]) it was 24 nM. Further, the CC50 at 48 h in data set [1] was > 10000 nM.
For `CCCN1C(=O)[C@]2(CC(=O)Nc3c2nnn3[C@@H](C)c2ccc(Cl)cc2)c2cc(Cl)ccc21` [Compound 9, (R)-5'-Chloro-3-((S)-1-(4-chlorophenyl)ethyl)-1'-propyl-4,6-dihydrospiro[[1,2,3]triazolo[4,5-b]pyridine-7,3'-indoline]-2',5(3H)-dione], in that order: 10 nM, 1900 nM, > 5000 nM, 71 nM and > 10000 nM.
With `CCCCN1C(=O)[C@]2(CC(=O)Nc3c2nnn3[C@@H](C)c2ccc(Cl)cc2)c2cc(Cl)ccc21` [Compound 10, (R)-1'-Butyl-5'-chloro-3-((S)-1-(4-chlorophenyl)ethyl)-4,6-dihydrospiro[[1,2,3]triazolo[4,5-b]pyridine-7,3'-indoline]-2',5(3H)-dione], the EC50 in the data set with DENV-3 replicon (setting [2]) was 18 nM; with DENV-1 replicon it was 1300 nM; in the data set with DENV-4 replicon, > 5000 nM; in the data set on DENV-2 replicon (setting [3]), 75 nM. Also, in data set [1], the CC50 at 48 h was > 10000 nM.
For `CCCCCCN1C(=O)[C@]2(CC(=O)Nc3c2nnn3[C@@H](C)c2ccc(Cl)cc2)c2cc(Cl)ccc21` [Compound 11, (R)-5'-Chloro-3-((S)-1-(4-chlorophenyl)ethyl)-1'-hexyl-4,6-dihydrospiro[[1,2,3]triazolo[4,5-b]pyridine-7,3'-indoline]-2',5(3H)-dione], in that order: 140 nM, 830 nM, > 5000 nM, 810 nM and > 10000 nM.
Regarding `CCCCCCCCCCN1C(=O)[C@]2(CC(=O)Nc3c2nnn3[C@@H](C)c2ccc(Cl)cc2)c2cc(Cl)ccc21` [Compound 12, (R)-5'-Chloro-3-((S)-1-(4-chlorophenyl)ethyl)-1'-decyl-4,6-dihydrospiro[[1,2,3]triazolo[4,5-b]pyridine-7,3'-indoline]-2ʹ,5(3H)-dione], the EC50 is 1200 nM in the data set on DENV-3 replicon (setting [2]), 3400 nM in the data set on DENV-1 replicon, 7300 nM in the data set on DENV-4 replicon and > 10000 nM in the data set on DENV-2 replicon (setting [3]). Further, the CC50 at 48 h in data set [1] was > 10000 nM.
In the case of `C[C@@H](c1ccc(Cl)cc1)n1nnc2c1NC(=O)C[C@]21C(=O)N(Cc2ccc(F)cc2)c2ccc(Cl)cc21` [Compound 25, (R)-5'-Chloro-3-((S)-1-(4-chlorophenyl)ethyl)-1'-(4-fluorobenzyl)-4,6-dihydrospiro[[1,2,3]triazolo[4,5-b]pyridine-7,3'-indoline]-2',5(3H)-dione], the CC50 at 48 h in data set [1] was > 10000 nM. Moreover, the EC50 with DENV-1 replicon was 5000 nM; in the data set on DENV-4 replicon, 10000 nM; in the data set with DENV-2 replicon (setting [3]), 140 to 290 nM; in the data set with DENV-2 replicon (setting [4]), 160 nM.
Take `C[C@@H](c1ccc(Cl)cc1)n1nnc2c1NC(=O)C[C@]21C(=O)N(Cc2cccc(F)c2)c2ccc(Cl)cc21` [Compound 26, (R)-5'-Chloro-3-((S)-1-(4-chlorophenyl)ethyl)-1'-(3-fluorobenzyl)-4,6-dihydrospiro[[1,2,3]triazolo[4,5-b]pyridine-7,3'-indoline]-2',5(3H)-dione]: the CC50 at 48 h in data set [1] was > 10000 nM. In addition, the EC50 with DENV-1 replicon is 10000 nM; with DENV-4 replicon it was > 5000 nM.
In the case of `COCOCCN1C(=O)[C@]2(CC(=O)Nc3c2nnn3[C@@H](C)c2ccc(Cl)cc2)c2cc(Cl)ccc21` [Compound 38, (R)-5'-Chloro-3-((S)-1-(4-chlorophenyl)ethyl)-1'-(2-(methoxymethoxy)ethyl)-4,6-dihydrospiro[[1,2,3]triazolo[4,5-b]pyridine-7,3'-indoline]-2',5(3H)-dione], the CC50 at 48 h in data set [1] is > 10000 nM. The EC50 with DENV-1 replicon and with DENV-4 replicon was > 5000 nM in each case.
Take `CCOC(CN1C(=O)[C@]2(CC(=O)Nc3c2nnn3[C@@H](C)c2ccc(Cl)cc2)c2cc(Cl)ccc21)OCC` [Compound 41, (R)-5'-Chloro-3-((S)-1-(4-chlorophenyl)ethyl)-1'-(2,2-diethoxyethyl)-4,6-dihydrospiro[[1,2,3]triazolo[4,5-b]pyridine-7,3ʹ-indoline]-2',5(3H)-dione]: the CC50 at 48 h in data set [1] is > 10000 nM. In addition, the EC50 in the data set on DENV-1 replicon and with DENV-4 replicon was > 5000 nM in each case.
`COC(=O)CN1C(=O)[C@]2(CC(=O)Nc3c2nnn3[C@@H](C)c2ccc(Cl)cc2)c2cc(Cl)ccc21` [Compound 43, Methyl 2-((R)-5'-chloro-3-((S)-1-(4-chlorophenyl)ethyl)-2',5-dioxo-3,4,5,6-tetrahydrospiro[[1,2,3]triazolo[4,5-b]pyridine-7,3'-indolin]-1'-yl)acetate]: the EC50 with DENV-3 replicon (setting [2]) is 9 to 76 nM; in the data set on DENV-3 replicon (read-out: EC50 DENV-3, Huh7 cells stably expressing DENV-3 replicon, 48 h) it was 11 nM; in the data set with DENV-1 replicon it was > 5000 nM; in the data set with DENV-4 replicon it was > 5000 nM. The CC50 at 48 h in data set [1] was > 10000 nM.
In the case of `C[C@@H](c1ccc(Cl)cc1)n1nnc2c1NC(=O)C[C@]21C(=O)N(CC(=O)O)c2ccc(Cl)cc21` [Compound 45, 2-((R)-5'-Chloro-3-((S)-1-(4-chlorophenyl)ethyl)-2',5-dioxo-3,4,5,6-tetrahydrospiro[[1,2,3]triazolo[4,5-b]pyridine-7,3'-indolin]-1ʹ-yl)acetic acid], the CC50 at 48 h in data set [1] was > 10000 nM. In addition, the EC50 in the data set on DENV-2 replicon (setting [3]) amounted to 2400 nM.
Regarding `C[C@@H](c1ccc(Cl)cc1)n1nnc2c1NC(=O)C[C@]21C(=O)N(CCCCCl)c2ccc(Cl)cc21` [Compound 48, (R)-5'-Chloro-1'-(4-chlorobutyl)-3-((S)-1-(4-chlorophenyl)ethyl)-4,6-dihydrospiro[[1,2,3]triazolo[4,5-b]pyridine-7,3'-indoline]-2',5(3H)-dione], the CC50 at 48 h in data set [1] is > 10000 nM. For the same molecule, the EC50 is > 5000 nM in the data set on DENV-1 replicon, > 5000 nM with DENV-4 replicon, 37 to 290 nM in the data set on DENV-2 replicon (setting [3]) and 73 nM with DENV-2 replicon (setting [4]).
Consider `C[C@@H](c1ccc(Cl)cc1)n1nnc2c1NC(=O)C[C@]21C(=O)N(CCCCCCBr)c2ccc(Cl)cc21` [Compound 49, (R)-1'-(6-Bromohexyl)-5'-chloro-3-((S)-1-(4-chlorophenyl)ethyl)-4,6-dihydrospiro[[1,2,3]triazolo[4,5-b]pyridine-7,3'-indoline]-2ʹ,5(3H)-dione], for which the CC50 at 48 h in data set [1] is > 10000 nM. Further, the EC50 in the data set on DENV-2 replicon (setting [3]) turned out to be 3000 nM.
As for `C[C@@H](c1ccc(Cl)cc1)n1nnc2c1NC(=O)C[C@]21C(=O)N(CCCCCCCCBr)c2ccc(Cl)cc21` [Compound 50, (R)-1'-(8-bromooctyl)-5'-chloro-3-((S)-1-(4-chlorophenyl)ethyl)-4,6-dihydrospiro[[1,2,3]triazolo[4,5-b]pyridine-7,3'-indoline]-2',5(3H)-dione], the CC50 at 48 h in data set [1] was > 10000 nM. For the same molecule, the EC50 with DENV-2 replicon (setting [3]) was > 5000 nM.
